Some results are limits rather than exact numbers.

T1 sequence (P35968 786-1356 limits assumed): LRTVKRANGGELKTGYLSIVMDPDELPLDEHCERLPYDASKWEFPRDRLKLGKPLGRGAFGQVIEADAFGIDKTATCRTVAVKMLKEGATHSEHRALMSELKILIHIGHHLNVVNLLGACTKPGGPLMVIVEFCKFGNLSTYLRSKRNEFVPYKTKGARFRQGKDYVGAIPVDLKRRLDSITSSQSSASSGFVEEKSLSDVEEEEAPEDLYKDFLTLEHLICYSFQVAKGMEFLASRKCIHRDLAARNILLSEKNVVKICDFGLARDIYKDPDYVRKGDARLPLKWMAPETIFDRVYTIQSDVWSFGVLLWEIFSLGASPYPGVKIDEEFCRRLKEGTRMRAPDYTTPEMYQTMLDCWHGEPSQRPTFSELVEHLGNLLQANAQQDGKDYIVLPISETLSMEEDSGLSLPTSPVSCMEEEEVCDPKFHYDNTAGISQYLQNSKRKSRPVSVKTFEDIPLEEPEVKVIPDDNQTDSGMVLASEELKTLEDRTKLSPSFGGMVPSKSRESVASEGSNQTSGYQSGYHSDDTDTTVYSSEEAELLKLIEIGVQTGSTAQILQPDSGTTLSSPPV

One assay addresses T1, human KDR enzyme (Homo sapiens, UniProt P35968).
T1 construct: The cytoplasmic domain of human KDR enzyme is cloned in the form of a GST fusion; GST; made in house; host or cells: SF21 insect cells (baculovirus, pFastBac)
Put plainly: Phosphorylation of the substrate PLCγ by the enzyme KDR in vitro (flashplate technique). Format: biochemical. The settings on record: Table VII, degrees of activity by IC50 range; read-out: Activity. The procedure: The inhibitory effect of the compounds is determined in a test of phosphorylation of a substrate by the enzyme KDR in vitro by the flasplate technique (96-well plate, NEN). The cytoplasmic domain of human KDR enzyme is cloned in the form of a GST fusion into the baculovirus expression vector pFastBac. The protein is expressed in the SF21 cells and purified to about 60% homogeneity.
The kinase activity of KDR is measured in 20 mM MOPS, 10 mM MgCl2, 10 mM MnCl2, 1 mM DTT, 2.5 mM EGTA, 10 mM β-glycerophosphate, pH 7.2 in the presence of 10 mM MgCl2, 100 μM Na3VO4, 1 mM NaF. 10 μl of the compound are added to 70 μl of kinase buffer containing 100 ng of KDR enzyme at 4° C. The reaction is initiated by adding 20 μl of solution containing 2 μg of substrate (fragment SH2-SH3 of PLCγ expressed in the form of a GST fusion protein), 2 μCi γ33P[ATP] and 2 μM cold ATP. After incubating for 1 h at 37° C., the reaction is quenched by adding 1 volume (100 μl) of 200 mM EDTA. The incubation buffer is removed and the wells are washed three times with 300 μl of PBS. The radioactivity is measured in each well using a Top Count NXT instrument (Packard).
Background noise is determined by measuring the radio-activity in wells in quadruplet containing radioactive ATP and the substrate alone.
An activity control is measured in wells in quadruplet containing all the reagents (γ33P-[ATP], KDR and the substrate PLCγ) and in the absence of compound.
The inhibition of the KDR activity with the compound of the invention is expressed as a percentage of inhibition of the control activity determined in the absence of compound.
The compound SU5614 (Calbiochem) (1 μM) is included in each plate as inhibition control.
The IC50 values for the compounds are calculated by plotting the dose-response curves. The IC50 corresponds to the concentration of compound that induces a 50% inhibition of the kinase activity.
For the molecule `NS(=O)(=O)c1ccc(CNC(=O)c2ccc3[nH]c(-c4n[nH]c5ccccc45)nc3c2)cc1` [Example 28, 2-(1H-Indazol-3-yl)-1H-benzoimidazole-5-carboxylic acid 4-(aminosulpnonyl)benzylamide], the IC50 was less than 0.3 µM.

Turning to `CCOCCCNC(=O)c1ccc2[nH]c(-c3n[nH]c4ccccc34)nc2c1` [Example 29, 2-(1H-Indazol-3-yl)-1H-benzoimidazole-5-carboxylic acid (3-ethoxy-propyl)-amide], the IC50 fell in the range of 0.3 to 3 µM.

Take `O=C(NCc1ccc(Br)cc1)c1ccc2[nH]c(-c3n[nH]c4ccccc34)nc2c1` [Example 30, 2-(1H-Indazol-3-yl)-1H-benzoimidazole-5-carboxylic acid 4-bromo-benzylamide]: the IC50 is less than 0.3 µM.

Regarding `CS(=O)(=O)c1ccc(CNC(=O)c2ccc3[nH]c(-c4n[nH]c5ccccc45)nc3c2)cc1` [Example 31, 2-(1H-Indazol-3-yl)-1H-benzoimidazole-5-carboxylic acid 4-methanesulfonyl-benzylamide], the IC50 is less than 0.3 µM.

In the case of `O=C(NCc1cccc2ccccc12)c1ccc2[nH]c(-c3n[nH]c4ccccc34)nc2c1` [Example 32, 2-(1H-Indazol-3-yl)-1H-benzoimidazole-5-carboxylic acid (naphthalen-1-ylmethyl)-amide], the IC50 is 0.3 to 3 µM.

As for `O=C(NCc1ccc(C(F)(F)F)cc1)c1ccc2[nH]c(-c3n[nH]c4ccccc34)nc2c1` [Example 33, 2-(1H-Indazol-3-yl)-1H-benzoimidazole-5-carboxylic acid 4-trifluoromethyl-benzylamide], the IC50 lay in the range of 0.3 to 3 µM.

Take `O=C(NCc1cccs1)c1ccc2[nH]c(-c3n[nH]c4ccccc34)nc2c1` [Example 34, 2-(1H-Indazol-3-yl)-1H-benzoimidazole-5-carboxylic acid (thiophen-2-ylmethyl)-amide]: the IC50 lay within 0.3 to 3 µM.

For `CN(C)c1ccc(CNC(=O)c2ccc3[nH]c(-c4n[nH]c5ccccc45)nc3c2)cc1` [Example 35, 2-(1H-Indazol-3-yl)-1H-benzoimidazole-5-carboxylic acid 4-dimethylamino-benzylamide], the IC50 was in the range of 0.3 to 3 µM.

For `CC(C)(C)OC(=O)N1CCC(CNC(=O)c2ccc3[nH]c(-c4n[nH]c5ccccc45)nc3c2)CC1` [Example 36, 4-({[2-(1H-Indazol-3-yl)-1H-benzoimidazole-5-carbonyl]-amino}-methyl)-piperidine-1-carboxylic acid tert-butyl ester], the IC50 was 0.3 to 3 µM.

On to `O=C(NCc1ccc([N+](=O)[O-])cc1)c1ccc2[nH]c(-c3n[nH]c4ccccc34)nc2c1` [Example 37, 2-(1H-Indazol-3-yl)-1H-benzoimidazole-5-carboxylic acid 4-nitro-benzylamide], for which the IC50 was less than 0.3 µM.

With `O=C(NCc1cccnc1)c1ccc2[nH]c(-c3n[nH]c4ccccc34)nc2c1` [Example 38, 2-(1H-Indazol-3-yl)-1H-benzoimidazole-5-carboxylic acid (pyridin-3-ylmethyl)-amide], the IC50 was 0.3 to 3 µM.

Regarding `O=C(NCc1cccc(Br)c1)c1ccc2[nH]c(-c3n[nH]c4ccccc34)nc2c1` [Example 39, 2-(1H-Indazol-3-yl)-1H-benzoimidazole-5-carboxylic acid 3-bromo-benzylamide], the IC50 lay within 0.3 to 3 µM.

Turning to `COc1cccc(CNC(=O)c2ccc3[nH]c(-c4n[nH]c5ccccc45)nc3c2)c1` [Example 40, 2-(1H-Indazol-3-yl)-1H-benzoimidazole-5-carboxylic acid 3-methoxy-benzylamide], the IC50 fell in the range of 0.3 to 3 µM.

On to `O=C(NCc1ccc2c(c1)OCO2)c1ccc2[nH]c(-c3n[nH]c4ccccc34)nc2c1` [Example 41, 2-(1H-Indazol-3-yl)-1H-benzoimidazole-5-carboxylic acid (benzo[1,3]dioxole-5-ylmethyl)-amide], for which the IC50 is 0.3 to 3 µM.

Staying with this assay, now noted: product tested at 10 μM; read-out: % of inhibition of the phosphorylation of PLCγ by KDR (product tested at a concentration of 10 μM).
Regarding `CCNC(=O)c1ccc2[nH]c(-c3n[nH]c4ccccc34)nc2c1` [Example 3, 2-(1H-Indazol-3-yl)-1H-benzimidazole-5-carboxylic acid N-ethylamide], the inhibition at 10 µM was 91.8%.

As for `O=C(Nc1ccccc1)c1ccc2[nH]c(-c3n[nH]c4ccccc34)nc2c1` [Example 5, 2-(1H-Indazol-3-yl)-1H-benzimidazole-5-carboxylic acid N-phenylamide], the inhibition at 10 µM is 91.9%.

`Brc1ccc2nc(-c3n[nH]c4ccccc34)[nH]c2c1` [Example 18, 5-Bromo-2-(1H-indazol-3-yl)-3H-benzimidazole]: the inhibition at 10 µM came out at 91.2%.

On to `Cc1cc2nc(-c3cc(-c4cccs4)n[nH]3)[nH]c2cc1C` [Example 21, 5,6-Dimethyl-2-(5-thiophen-2-yl-2H-pyrazol-3-yl)-1H-benzimidazole], for which the inhibition at 10 µM is 35%.

The assay is the same for the next values; noted with them: read-out: IC50 (μM) on inhibition of the phosphory-lation of PLCγ by KDR.
`O=C(NCc1ccccc1)c1ccc2nc(-c3n[nH]c4ccccc34)[nH]c2c1` [Example 1, 2-(1H-Indazol-3-yl)-1H-benzimidazole-5-carboxylic acid benzylamide]: the IC50 came out at 0.47 µM.

Turning to `CNC(=O)c1ccc2[nH]c(-c3n[nH]c4ccccc34)nc2c1` [Example 2, 2-(1H-Indazol-3-yl)-1H-benzimidazole-5-carboxylic acid N-methylamide], the IC50 was 0.45 µM.

As to `CC(C)NC(=O)c1ccc2[nH]c(-c3n[nH]c4ccccc34)nc2c1` [Example 4, 2-(1H-Indazol-3-yl)-1H-benzimidazole-5-carboxylic acid N-isopropylamide], the IC50 amounted to 0.45 µM.

With `O=C(NCCc1ccccc1)c1ccc2[nH]c(-c3n[nH]c4ccccc34)nc2c1` [Example 6, 2-(1H-Indazol-3-yl)-1H-benzimidazole-5-carboxylic acid N-phenethylamide], the IC50 came out at 0.33 µM.

In the case of `O=C(c1ccc2[nH]c(-c3n[nH]c4ccccc34)nc2c1)N1CCOCC1` [Example 7, 2-(1H-Indazol-3-yl)-1H-benzimidazole-5-carboxylic acid N-morpholinoamide], the IC50 amounted to 0.72 µM.

For the molecule `CN1CCN(C(=O)c2ccc3[nH]c(-c4n[nH]c5ccccc45)nc3c2)CC1` [Example 8, 2-(1H-Indazol-3-yl)-1H-benzimidazole-5-carboxylic acid N-(N′-methyl-piperazino)amide], the IC50 turned out to be 0.67 µM.

Take `O=C(c1ccc2[nH]c(-c3n[nH]c4ccccc34)nc2c1)N1CCCC1` [Example 9, 2-(1H-Indazol-3-yl)-1H-benzimidazole-5-carboxylic acid N-pyrrolidinoamide]: the IC50 was determined as 0.35 µM.

Regarding `CC(C)CNC(=O)c1ccc2[nH]c(-c3n[nH]c4ccccc34)nc2c1` [Example 10, 2-(1H-Indazol-3-yl)-1H-benzimidazole-5-carboxylic acid N-(isobutyl)amide], the IC50 was determined as 0.34 µM.

For `O=C(NCC1CCCCC1)c1ccc2[nH]c(-c3n[nH]c4ccccc34)nc2c1` [Example 11, 2-(1H-Indazol-3-yl)-1H-benzimidazole-5-carboxylic acid N-(cyclohexylmethyl)amide], the IC50 was found to be 0.26 µM.

As to `O=C(NCc1ccco1)c1ccc2[nH]c(-c3n[nH]c4ccccc34)nc2c1` [Example 12, 2-(1H-Indazol-3-yl)-1H-benzimidazole-5-carboxylic acid N-(2-furfuryl)amide], the IC50 was found to be 0.16 µM.

With `CN(Cc1ccccc1)C(=O)c1ccc2[nH]c(-c3n[nH]c4ccccc34)nc2c1` [Example 13, 2-(1H-Indazol-3-yl)-1H-benzimidazole-5-carboxylic acid N-benzyl-N-methylamide], the IC50 was determined as 0.61 µM.

Turning to `COC(=O)c1ccc2nc(-c3n[nH]c4ccccc34)[nH]c2c1` [Example 14, Methyl 2-(1H-indazol-3-yl)-3H-benzimidazole-5-carboxylate], the IC50 turned out to be 1.2 µM.

For the molecule `Cc1cc2nc(-c3n[nH]c4ccccc34)[nH]c2cc1C` [Example 15, 5,6-Dimethyl-2-(1H-indazol-3-yl)-1H-benzimidazole], the IC50 was found to be 0.8 µM.

With `COc1ccc2nc(-c3n[nH]c4ccccc34)[nH]c2c1` [Example 16, 5-Methoxy-2-(1H-indazol-3-yl)-1H-benzimidazole], the IC50 is 2 µM.

Regarding `Cc1cc(-c2nc3cc(C)c(C)cc3[nH]2)[nH]n1` [Example 20, 5,6-Dimethyl-2-(5-methyl-2H-pyrazol-3-yl)-1H-benzimidazole], the IC50 was 3.4 µM.

For `CCc1cc(-c2nc3cc(C)c(C)cc3[nH]2)[nH]n1` [Example 23, 2-(5-Ethyl-2H-pyrazol-3-yl)-5,6-dimethyl-1H-benzimidazole], the IC50 is 2 µM.

Values taken from patent US20050009894A1 (Aventis Pharma S.A., priority 2001, published 2005).
